Among the data in ChEMBL document CHEMBL1833846 (Bioorg Med Chem Lett, 2011) are Activity, IC50 and Ratio IC50 values, retold here.

Experiment [1] concerns the target T1, Histone deacetylase 3 (Homo sapiens, UniProt O15379). In words: Inhibition of HDAC3 assessed as residual activity at 32 uM after 30 mins by Fluor de Lys fluorescence assay.
Experiment [2] has as its target Histone deacetylase. In words: Inhibition of human HDAC in HeLa cells after 30 mins by Fluor de Lys fluorescence assay. The class given is cell-based.
The target in experiment [3] is T2, Protein deacetylase HDAC6 (Homo sapiens) (UniProt Q9UBN7).
T2 sequence (whole entry): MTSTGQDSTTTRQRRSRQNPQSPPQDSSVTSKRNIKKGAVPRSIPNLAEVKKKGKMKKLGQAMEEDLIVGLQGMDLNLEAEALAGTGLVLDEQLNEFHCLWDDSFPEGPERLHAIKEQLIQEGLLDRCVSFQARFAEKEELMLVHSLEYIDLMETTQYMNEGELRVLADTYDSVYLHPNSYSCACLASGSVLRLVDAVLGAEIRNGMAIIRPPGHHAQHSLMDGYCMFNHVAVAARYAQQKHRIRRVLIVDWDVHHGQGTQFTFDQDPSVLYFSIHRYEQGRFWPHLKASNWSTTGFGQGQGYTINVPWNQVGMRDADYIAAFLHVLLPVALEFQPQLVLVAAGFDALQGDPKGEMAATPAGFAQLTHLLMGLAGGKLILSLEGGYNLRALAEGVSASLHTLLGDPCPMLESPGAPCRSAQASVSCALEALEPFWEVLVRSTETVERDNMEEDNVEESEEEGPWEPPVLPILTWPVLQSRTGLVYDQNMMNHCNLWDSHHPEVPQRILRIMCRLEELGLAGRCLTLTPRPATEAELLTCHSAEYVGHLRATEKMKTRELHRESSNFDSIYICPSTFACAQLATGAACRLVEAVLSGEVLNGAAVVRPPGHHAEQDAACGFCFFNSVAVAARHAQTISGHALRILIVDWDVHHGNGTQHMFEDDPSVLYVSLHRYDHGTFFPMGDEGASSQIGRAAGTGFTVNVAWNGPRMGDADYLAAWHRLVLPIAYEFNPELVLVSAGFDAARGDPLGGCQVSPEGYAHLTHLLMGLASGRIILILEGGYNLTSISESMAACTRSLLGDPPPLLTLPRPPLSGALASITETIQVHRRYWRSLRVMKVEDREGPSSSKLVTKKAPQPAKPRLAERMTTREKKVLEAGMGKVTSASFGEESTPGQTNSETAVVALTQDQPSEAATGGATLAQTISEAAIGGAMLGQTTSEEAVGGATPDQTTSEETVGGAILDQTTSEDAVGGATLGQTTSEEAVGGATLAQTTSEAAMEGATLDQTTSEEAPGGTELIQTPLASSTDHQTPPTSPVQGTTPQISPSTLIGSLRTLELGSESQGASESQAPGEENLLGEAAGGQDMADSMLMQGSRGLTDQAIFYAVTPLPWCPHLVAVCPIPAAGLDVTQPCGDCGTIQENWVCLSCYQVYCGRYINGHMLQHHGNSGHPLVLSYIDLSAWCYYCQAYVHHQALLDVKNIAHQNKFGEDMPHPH
Put plainly: Inhibition of HDAC6 assessed as residual activity at 32 uM after 30 mins by Fluor de Lys fluorescence assay.

For experiment [4], the target named is T3, Histone deacetylase 1 (Homo sapiens, UniProt Q13547). Put plainly: Inhibition of HDAC1 assessed as residual activity at 32 uM after 30 mins by Fluor de Lys fluorescence assay.
T3 sequence (Q13547 whole entry): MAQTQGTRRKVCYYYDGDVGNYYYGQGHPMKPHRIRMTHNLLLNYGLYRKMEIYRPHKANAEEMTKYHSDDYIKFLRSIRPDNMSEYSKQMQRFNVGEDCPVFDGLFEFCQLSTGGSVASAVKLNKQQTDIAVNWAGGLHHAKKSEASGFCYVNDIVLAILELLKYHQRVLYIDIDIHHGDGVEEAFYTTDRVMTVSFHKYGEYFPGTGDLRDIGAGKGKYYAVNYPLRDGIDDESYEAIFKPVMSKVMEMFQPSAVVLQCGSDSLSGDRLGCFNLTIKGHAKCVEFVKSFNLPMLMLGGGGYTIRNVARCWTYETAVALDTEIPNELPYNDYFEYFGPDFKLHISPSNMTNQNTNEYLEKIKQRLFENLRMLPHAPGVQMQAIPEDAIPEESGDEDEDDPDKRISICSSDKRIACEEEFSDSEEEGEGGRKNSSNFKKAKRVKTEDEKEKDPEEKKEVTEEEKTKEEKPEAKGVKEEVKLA
Experiment [5] deals with T1, Histone deacetylase 3. The conditions noted are these: 375 nM.
In experiment [6] the target is T2, Protein deacetylase HDAC6 (Homo sapiens). The conditions noted are these: 375 nM.
The target in experiment [7] is T3, Histone deacetylase 1. Conditions: 375 nM.
The target in experiment [8] is T4, Protein deacetylase HDAC6 (Homo sapiens, UniProt Q9UBN7).
T4 sequence (Q9UBN7 whole entry): T2 sequence (whole entry)
Put plainly: Inhibition of HDAC6 after 30 mins by Fluor de Lys fluorescence assay.

Experiment [9] in a line: Selectivity ratio of IC50 for HDAC3 to IC50 for HDAC6.
In experiment [10] the target is T3, Histone deacetylase 1. Put plainly: Inhibition of HDAC1 after 30 mins by Fluor de Lys fluorescence assay.
Experiment [11] is described as follows: Selectivity ratio of IC50 for HDAC1 to IC50 for HDAC6.
Experiment [12] is described as follows: Selectivity ratio of IC50 for HDAC3 to IC50 for HDAC1.
Experiment [13] addresses T1, Histone deacetylase 3. Put plainly: Inhibition of HDAC3 after 30 mins by Fluor de Lys fluorescence assay.

T1 sequence (O15379 whole entry): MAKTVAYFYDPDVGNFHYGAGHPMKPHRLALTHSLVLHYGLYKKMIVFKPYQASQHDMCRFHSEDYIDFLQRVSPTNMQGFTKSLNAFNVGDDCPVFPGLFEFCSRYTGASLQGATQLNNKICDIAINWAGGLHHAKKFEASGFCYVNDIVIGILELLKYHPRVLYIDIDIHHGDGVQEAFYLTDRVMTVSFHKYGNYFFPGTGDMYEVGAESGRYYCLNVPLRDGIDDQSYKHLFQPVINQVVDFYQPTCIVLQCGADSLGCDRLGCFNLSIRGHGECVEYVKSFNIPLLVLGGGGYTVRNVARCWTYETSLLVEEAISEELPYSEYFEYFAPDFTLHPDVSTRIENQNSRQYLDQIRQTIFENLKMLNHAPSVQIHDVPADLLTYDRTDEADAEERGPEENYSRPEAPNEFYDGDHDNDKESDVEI

A word on the IC50: it is the concentration that gives 50% inhibition. Low readings indicate inhibition by little substance, high ones a need for much substance. On to `O=C(CC(CCCCC(=O)Nc1ccccc1)c1ccccc1)NO` (configuration not stated), for which the Activity in [1] amounted to 50%; in [3] it was 25%; in [4] it was 45%. For the same compound, the half-maximal inhibitory concentration (IC50) in experiment [2] amounted to 73 µM.

With `C=CC(CCCCC(=O)Nc1ccccc1)CC(=O)NO` (configuration not stated), the Activity in experiment [1] is 47%; in experiment [3], 27%; in [4], 24%. The compound also yielded a half-maximal inhibitory concentration (IC50) in [2] of 15 µM.

Regarding `CCCCC(CCCCC(=O)Nc1ccccc1)CC(=O)NO` (configuration not stated), the Activity in experiment [1] worked out at 51%; in experiment [3], 24%; in experiment [4], 33%. In experiment [2], this compound displayed an IC50 of 184 µM.

For the compound `CC(CCCCC(=O)Nc1ccccc1)CC(=O)NO` (configuration not stated), the Activity in [5] stood at 59%; in experiment [6], 74%; in [7], 46%. This compound also registered a half-inhibitory concentration (IC50) in experiment [2] of 0.35 µM.

As to `CCC(CCCCC(=O)Nc1ccccc1)CC(=O)NO` (configuration not stated), the IC50 worked out at 8 µM in experiment [8], 32 µM in experiment [2], 22 µM in experiment [10] and 97 µM in experiment [13]. For the same compound, the Activity in experiment [1] was found to be 83%; in experiment [3], 18%; in [4] it was 39%. Also, the Ratio IC50 in experiment [9] came to 12; in experiment [11], 3; in experiment [12], 4.

Take `O=C(CCCCCCC(=O)Nc1ccc([C@H]2O[C@@H](CSc3nc(-c4ccccc4)c(-c4ccccc4)o3)C[C@@H](c3ccc(CO)cc3)O2)cc1)NO`: the Ratio IC50 in [11] amounted to 7.
